Experimental data published in patent US20240239796A1, “CRYSTALLINE POLYMORPHS OF EPIDERMAL GROWTH FACTOR RECEPTOR INHIBITOR, AND COMPOSITIONS AND METHODS THEREOF” (Crimson BioPharm Inc., priority 2022, published 2024).
Where two headings read alike, the source gives them in different places.

How the values were obtained:
Format in all cases: physicochemical
[1] = Dynamic moisture sorption analysis (DVS)
Procedure: DVS was determined using DVS Intrinsic (SMS, UK). A sample was tested at a targeted relative humidity (RH) of 10 to 90% full cycle in step mode. The analysis was performed in 10% RH increments: • Equilibrium: 60 min; • RH (%) measurement points: • Sorption: 0, 10, 20, 30, 40, 50, 60, 70, 80, 90 • Desorption: 80, 70, 60, 50, 40, 30, 20, 10, 0.

[2] = Inter-conversion study (competitive slurry); conditions: for Slurry at 50° C. 1 or 7 d (wet cake) / Slurry at RT (~20° C.) 3 d (wet cake): competitive slurry in IPA, resulting form; for Form at 7 d: slurry in ACN/water 1/9 (v/v); for form after slurry: ACN-water (1/9)
Procedure: (20 mg/mL) and RT (10 mg/mL), and in ACN-water (1/9) at 50° C. (10 mg/mL) and RT (5 mg/mL).
The mixture of crystalline Form I and crystalline Form V of the sample was suspended in IPA at 50° C. (20 mg/mL) and RT (5 mg/mL).
The residual solids from both mixtures were obtained and characterized.

[3] = Form conversion on heating / desolvation (XRPD, FIG. 5, FIG. 8); conditions: heated to 200° C.
[4] = Stability study (grinding, high humidity)
Procedure: A certain amount (e.g., ˜10 mg) of crystalline Form I was ground for 2 min or put at 25° C./92.5% RH for 2 weeks. Then the sample was tested by XRPD to determine the physical stability.

Slurry study = conditions: XRPD; for Form of wet cake at 1 day: 50° C.; for Form of wet cake at 4 days: RT (~20° C.), ~25 mg/mL
Procedure: Appropriate amount of crystalline Form I was added into different solvents to make suspension. The suspensions were kept stirring at room temperature (RT, ˜20° C.) or 50° C., respectively. Solid samples were collected and analyzed by XRPD at a specific time. If new XRPD patterns were identified, the sample was further analyzed by DSC and TGA.

Water activity study = assay: Water activity study
Procedure: A certain amount (e.g., ˜70 mg) of crystalline Form I was stirred in 500 μL of acetone-water mixtures with different water content (5%, 10%, 30%, 50%, 70% and 90%) at RT (˜20° C.) for 3, 7 or 8 days. Residual solids were collected and characterized.

Rough solubility testing = conditions: for solubility: thermodynamic from solid, ~20° C., read-out: Solubility of Tosylate (mg/mL, ~20° C.); for solubility (in words): RT (~20° C.)
Procedure: About 2 mg of crystalline Form I was weighed into glass vials, and then different selected solvents were added in the vial stepwise until all solid was dissolved. This experiment was conducted by manual dilution combined with visual observation at ˜20° C. The total volume of solvent added was recorded.

[5] = slurry in Acetone/water 1/1 (v/v), water activity 0.93, RT
[6] = slurry in Acetone/water 1/9 (v/v), water activity 0.98, RT
[7] = slurry in Acetone/water 3/7 (v/v), water activity 0.95, RT
[8] = slurry in Acetone/water 7/3 (v/v), water activity 0.88, RT
[9] = slurry in Acetone/water 9/1 (v/v), water activity 0.72, RT
[10] = slurry in Acetone/water 19/1 (v/v), water activity 0.31, RT

C=CC(=O)Nc1cc(Nc2nccc(-n3ccc4cccnc43)n2)c(OC)cc1N(C)CCN(C)C.Cc1ccc(S(=O)(=O)O)cc1 [Form VI, N-(5-((4-(1H-pyrrolo[2,3-b]pyridin-1-yl)pyrimidin-2-yl)amino)-2-((2-(dimethylamino)ethyl)(methyl)amino)-4-methoxyphenyl)acrylamide tosylate salt]
water sorption ([1]; 80% RH and 25° C.): 0.72%
hygroscopicity ([1]; DVS, 80% RH and 25° C.): slightly hygroscopic
crystalline form change after DVS test ([1]; after DVS test): no crystalline form change

C=CC(=O)Nc1cc(Nc2nccc(-n3ccc4cccnc43)n2)c(OC)cc1N(C)CCN(C)C.Cc1ccc(S(=O)(=O)O)cc1 [Form I and V (1:1)]
Slurry at 50° C. 1 or 7 d (wet cake) ([2]; 50° C.): From I
Slurry at RT (~20° C.) 3 d (wet cake) ([2]; RT): Form I

C=CC(=O)Nc1cc(Nc2nccc(-n3ccc4cccnc43)n2)c(OC)cc1N(C)CCN(C)C.Cc1ccc(S(=O)(=O)O)cc1 [Form IV, N-(5-((4-(1H-pyrrolo[2,3-b]pyridin-1-yl)pyrimidin-2-yl)amino)-2-((2-(dimethylamino)ethyl)(methyl)amino)-4-methoxyphenyl)acrylamide tosylate salt]
form conversion on heating [3]: convert to crystalline Form III

C=CC(=O)Nc1cc(Nc2nccc(-n3ccc4cccnc43)n2)c(OC)cc1N(C)CCN(C)C.Cc1ccc(S(=O)(=O)O)cc1 [Form I and III (1:1)]
Slurry at 50° C. 1 or 7 d (wet cake) ([2]; 50° C.): Form I
Slurry at RT (~20° C.) 3 d (wet cake) ([2]; RT): Form I
Form at 7 d ([2]; 50° C.): Form III
Form at 7 d ([2]; RT (~20° C.)): Form VI

C=CC(=O)Nc1cc(Nc2nccc(-n3ccc4cccnc43)n2)c(OC)cc1N(C)CCN(C)C.Cc1ccc(S(=O)(=O)O)cc1 [Form I, N-(5-((4-(1H-pyrrolo[2,3-b]pyridin-1-yl)pyrimidin-2-yl)amino)-2-((2-(dimethylamino)ethyl)(methyl)amino)-4-methoxyphenyl)acrylamide tosylate salt]
solid-state stability ([4]; after stressing with temperature and high RH): good solid-state stability
Physical stability (form change by XRPD) ([4]; high humidity, 25° C./92.5% RH for 2 weeks): No form change
Physical stability (form change by XRPD) ([4]; mechanical stress (grinding, 2 min)): No form change
Form of wet cake at 1 day (Slurry study; slurry in ACN): Form I
Form of wet cake at 4 days (Slurry study; slurry in ACN): Form I
Form of wet cake at 1 day (Slurry study; slurry in Acetone): Form I
Form of wet cake at 4 days (Slurry study; slurry in Acetone): Form I
Form of wet cake at 1 day (Slurry study; slurry in EA): Form I
Form of wet cake at 4 days (Slurry study; slurry in EA): Form I
Form of wet cake at 1 day (Slurry study; slurry in EtOH): Form I
Form of wet cake at 4 days (Slurry study; slurry in EtOH): Form I
Form of wet cake at 1 day (Slurry study; slurry in Heptane): Form I
Form of wet cake at 4 days (Slurry study; slurry in Heptane): Form I
Form of wet cake at 1 day (Slurry study; slurry in IPA): Form I
Form of wet cake at 4 days (Slurry study; slurry in IPA): Form I
Form of wet cake at 1 day (Slurry study; slurry in IPAC): Form I
Form of wet cake at 4 days (Slurry study; slurry in IPAC): Form I
Form of wet cake at 1 day (Slurry study; slurry in Isobutanol): Form I
Form of wet cake at 4 days (Slurry study; slurry in Isobutanol): Form I
Form of wet cake at 1 day (Slurry study; slurry in MEK): Form I
Form of wet cake at 4 days (Slurry study; slurry in MEK): Form I
Form of wet cake at 1 day (Slurry study; slurry in MTBE): Form I
Form of wet cake at 4 days (Slurry study; slurry in MTBE): Form I
Form of wet cake at 1 day (Slurry study; slurry in THF): Form I
Form of wet cake at 4 days (Slurry study; slurry in THF): Form I
Form of wet cake at 1 day (Slurry study; slurry in Toluene): Form I
Form of wet cake at 4 days (Slurry study; slurry in Toluene): Form I
Form of wet cake at 1 day (Slurry study; slurry in Water): Form I
Form of wet cake at 4 days (Slurry study; slurry in Water): Form I
Form at 3 d (Water activity study; [5]): Form V
Form at 7 d (Water activity study; [5]): Form V
Form at 3 d (Water activity study; [6]): Form I
Form at 7 d (Water activity study; [6]): Form I
Form at 3 d (Water activity study; [7]): Form V
Form at 7 d (Water activity study; [7]): Form V
Form at 3 d (Water activity study; [8]): Form V
Form at 7 d (Water activity study; [8]): Form V
Form at 3 d (Water activity study; [9]): Form V
Form at 7 d (Water activity study; [9]): Form V
Form at 3 d (Water activity study; [10]): Form I
Form at 7 d (Water activity study; [10]): Form VII
Form at 8 d (Water activity study; [10]): Form V
form after slurry ([2]; 50° C.): crystalline Form III
form after slurry ([2]; RT): crystalline Form VI
relative stability among crystal forms ([2]; polymorph screening, anhydrate forms): most stable anhydrate form
solubility (Rough solubility testing; ACN (acetonitrile), organic solvent or mixture, solvent ACN): ~2.2 mg/mL
solubility (in words) (Rough solubility testing; in MeOH and DCM): relatively high solubility
solubility (in words) (Rough solubility testing; in the other single solvents (not MeOH, DCM)): very low solubility
solubility (Rough solubility testing; organic solvent or mixture, solvent Acetone): ~0.95 mg/mL
solubility (Rough solubility testing; organic solvent or mixture, solvent DCM): ~5.1 mg/mL
solubility (Rough solubility testing; organic solvent or mixture, solvent EA): < 1 mg/mL
solubility (Rough solubility testing; organic solvent or mixture, solvent EtOH): ~1.9 mg/mL
solubility (Rough solubility testing; organic solvent or mixture, solvent Heptane): < 1 mg/mL
solubility (Rough solubility testing; organic solvent or mixture, solvent IPA): < 1.11 mg/mL
solubility (Rough solubility testing; organic solvent or mixture, solvent IPAC): < 1.2 mg/mL
solubility (Rough solubility testing; organic solvent or mixture, solvent Isobutanol): < 1 mg/mL
solubility (Rough solubility testing; organic solvent or mixture, solvent MEK): ~0.92 mg/mL
solubility (Rough solubility testing; organic solvent or mixture, solvent MTBE): < 1.1 mg/mL
solubility (Rough solubility testing; organic solvent or mixture, solvent MeOH): ~27.3 mg/mL
solubility (Rough solubility testing; organic solvent or mixture, solvent THF): < 1.14 mg/mL
solubility (Rough solubility testing; organic solvent or mixture, solvent Toluene): < 1.2 mg/mL
solubility (Rough solubility testing; solvent Water): < 1.02 mg/mL
